Laboratory results reported in ChEMBL document CHEMBL5346961, “Discovery and Evaluation of 3-Quinoxalin Urea Derivatives as Potent, Selective, and Orally Available ATM Inhibitors Combined with Chemotherapy for the Treatment of Cancer via Goal-Oriented Molecule Generation and Virtual Screening” (J Med Chem, 2023).
One block for each molecule: values may come before it. Calls of active or inactive are those of the source. No cut-off for these calls is given here.

Key:
[1] = target: T1, Serine/threonine-protein kinase ATR (Homo sapiens, UniProt Q13535); assay: Inhibition of flag tagged- ATR (unknown origin) expressed in Escherichia coli BL21 incubated for 20 mins in presence of ATP
[2] = Inhibition of PIK3 (unknown origin); set-up: species or system Homo sapiens
[3] = target: T2, Serine-protein kinase ATM (Homo sapiens, UniProt Q13315); assay: Inhibition of flag tagged- ATM (unknown origin) expressed in Escherichia coli BL21 incubated for 20 mins in presence of ATP
[4] = target: Phosphatidylinositol 4,5-bisphosphate 3-kinase catalytic subunit alpha isoform (Homo sapiens, UniProt P42336); assay: Inhibition of PIK3alpha (unknown origin)
[5] = target: DNA-dependent protein kinase catalytic subunit (Homo sapiens, UniProt P78527); assay: Inhibition of DNA-PK (unknown origin)
[6] = Metabolic stability in human liver microsomes assessed as clearance at 1 uM in presence of NADPH-regenerating system by LC-MS/MS analysis; type: ADME, Microsome
HCT-116 [7] = assay: Inhibition of colony formation in human HCT-116 cells at 0.01 uM preincubated for 1 hr followed by exposure to 2 Gy gamma irradiation and measured after 1 week by crystal violet staining based […] assay relative to control; type: functional; conditions: HCT-116, light or radiation study, time 169 hrs
HCT-116 [8] = assay: Inhibition of colony formation in human HCT-116 cells preincubated for 1 hr followed by exposure to 2 Gy gamma irradiation and measured after 1 week by crystal violet staining based […] assay; type: functional, cell-based; conditions: HCT-116, light or radiation study
[9] = Cmax in Balb/C mouse at 10 mg/kg,po measured upto 48 hrs by LC-MS/MS analysis; type: ADME, organism-based; set-up: dose 10 mg/kg, time < 48 hrs, route po; conditions: in vivo
[10] = Tmax in Balb/C mouse at 10 mg/kg,po measured upto 48 hrs by LC-MS/MS analysis; type: ADME, organism-based; conditions: in vivo
HCT-116 [11] = assay: Antiproliferative activity against human HCT-116 cells assessed as reduction in cell viability incubated for 6 days by MTT assay; type: functional, cell-based; conditions: HCT-116, 144 h
MCF7 [12] = assay: Synergistic antiproliferative activity against human MCF7 cells assessed as fold increase in etoposide IC50 at 200 nM measured after 6 days by MTT assay; type: functional; conditions: time 6 day
[13] = Volume of distribution at steady state in Balb/C mouse at 10 mg/kg,po measured upto 48 hrs by LC-MS/MS analysis; type: ADME, organism-based; conditions: in vivo
[14] = Oral bioavailability in Balb/C mouse at 10 mg/kg measured upto 48 hrs by LC-MS/MS analysis; type: ADME, organism-based; conditions: in vivo
SW-620 [15] = assay: Antitumor activity against human SW620 cells xenografted in BALB/c nude mouse model assessed as tumor growth inhibition at 40 mg/kg, po administered once daily for 3 days weekly after irinotecan post treatment for 21 days by caliper method relative to control; type: functional; conditions: SW-620, 504 h, time 21 day, read-out: TGI
MCF7 [16] = assay: Antiproliferative activity against human MCF7 cells assessed as reduction in cell viability incubated for 6 days by MTT assay; type: functional, cell-based; conditions: MCF7, 144 h
[17] = AUC (0 to t) in Balb/C mouse at 10 mg/kg,po measured upto 48 hrs by LC-MS/MS analysis; type: ADME, organism-based; set-up: dose 10 mg/kg, time < 48 hrs, route po; conditions: in vivo
[18] = AUC (0 to t) in Balb/C mouse at 10 mg/kg,iv measured upto 48 hrs by LC-MS/MS analysis; type: ADME, organism-based; set-up: time < 48 hrs, dose 10 mg/kg, route iv; conditions: in vivo
[19] = Half life in Balb/C mouse at 10 mg/kg,iv measured upto 48 hrs by LC-MS/MS analysis; type: ADME, organism-based; conditions: in vivo
[20] = Cmax in Balb/C mouse at 10 mg/kg,iv measured upto 48 hrs by LC-MS/MS analysis; type: ADME, organism-based; set-up: time < 48 hrs, dose 10 mg/kg, route iv; conditions: in vivo
[21] = Clearance in Balb/C mouse at 10 mg/kg,iv measured upto 48 hrs by LC-MS/MS analysis; type: ADME, organism-based; conditions: in vivo
MCF7 [22] = assay: Synergistic antiproliferative activity against human MCF7 cells assessed as fold increase in irinotecan IC50 at 200 nM measured after 6 days by MTT assay; type: functional; conditions: time 6 day
HCT-116 [23] = assay: Inhibition of colony formation in human HCT-116 cells assessed as assessed as fold change in IC50 in presence of ionizing radiation; type: functional
HCT-116 [24] = assay: Induction of DNA damage in human HCT-116 cells assessed as reduction in p21 phosphorylation at T145 residue at 2 uM measured after 4 hrs by Western blot analysis; type: functional, cell-based
SW-620 [25] = assay: Antiproliferative activity against human SW620 cells assessed as reduction in cell viability incubated for 6 days by MTT assay; type: functional, cell-based; conditions: SW-620, 144 h
HCT-116 [26] = assay: Induction of DNA damage in human HCT-116 cells assessed as reduction in ATM phosphorylation at S1981 residue at 2 uM measured after 4 hrs by Western blot analysis; type: functional, cell-based
[27] = Metabolic stability in human liver microsomes assessed as half life at 1 uM in presence of NADPH-regenerating system by LC-MS/MS analysis; type: ADME, Microsome
[28] = Clearance in Balb/C mouse at 10 mg/kg,po measured upto 48 hrs by LC-MS/MS analysis; type: ADME, organism-based; conditions: in vivo
[29] = Half life in Balb/C mouse at 10 mg/kg,po measured upto 48 hrs by LC-MS/MS analysis; type: ADME, organism-based; conditions: in vivo
SW-620 [30] = assay: Synergistic inhibition of colony formation in human SW620 cells assessed as fold increase in irinotecan IC50 at 200 nM preincubated for 1 hr followed by irinotecan addition and measured after 1 week by crystal violet staining based […] assay; type: functional; conditions: time 169 hrs
HCT-116 [31] = assay: Antiproliferative activity against human HCT-116 cells assessed as cell survival at 1 uM incubated for 6 days by MTT assay relative to control; type: functional; conditions: HCT-116, 144 h, time 6 day, read-out: Survival
SW-620 [32] = assay: Synergistic antiproliferative activity against human SW620 cells assessed as fold increase in irinotecan IC50 at 200 nM measured after 6 days by MTT assay; type: functional; conditions: time 6 day
[33] = Volume of distribution at steady state in Balb/C mouse at 10 mg/kg,iv measured upto 48 hrs by LC-MS/MS analysis; type: ADME, organism-based; conditions: in vivo, read-out: Vdss
[34] = Tmax in Balb/C mouse at 10 mg/kg,iv measured upto 48 hrs by LC-MS/MS analysis; type: ADME, organism-based; conditions: in vivo
[35] = Toxicity in BALB/c nude mouse assessed as reduction in body weight at 40 mg/kg, ip administered once weekly for 21 days relative to control; type: organism-based; set-up: scale not given: the % may be the effect or the level left; conditions: in vivo, 504 h, time 21 day
SW-620 [36] = assay: Inhibition of colony formation in human SW620 cells measured after 1 week by crystal violet staining based […] assay; type: functional, cell-based; conditions: SW-620, 168 h
HCT-116 [37] = assay: Induction of DNA damage in human HCT-116 cells assessed as upregulation of p21 at T145 residue at 25 uM measured after 4 hrs by Western blot analysis; type: functional, cell-based
HCT-116 [38] = assay: Induction of apoptosis in human HCT-116 cells assessed as late apoptotic cells at 5 uM measured after 2 days by AnnexinV-FITC/PI staining based analysis (reference value: 12.2%); type: functional; conditions: time 2 day
HCT-116 [39] = assay: Induction of DNA damage in human HCT-116 cells assessed as upregulation of gammaH2AX at 25 uM measured after 4 hrs by Western blot analysis; type: functional, cell-based
SW-620 [40] = assay: Antiproliferative activity against human SW620 cells assessed as reduction in cell viability measured after 6 days by MTT assay; type: functional, cell-based; conditions: SW-620, 144 h
HCT-116 [41] = assay: Induction of apoptosis in human HCT-116 cells assessed as early apoptotic cells at 5 uM measured after 2 days by AnnexinV-FITC/PI staining based analysis (reference value: 14.4%); type: functional; conditions: time 2 day
SW-620 [42] = assay: Antitumor activity against human SW620 cells xenografted in BALB/c nude mouse model assessed as tumor growth inhibition at 40 mg/kg, ip administered once weekly for 21 days by caliper method relative to control; type: functional; conditions: SW-620, 504 h, time 21 day, read-out: TGI
HCT-116 [43] = assay: Induction of DNA damage in human HCT-116 cells assessed as upregulation of ATM phosphorylation at S1981 residue at 25 uM measured after 4 hrs by Western blot analysis; type: functional, cell-based
MCF7 [44] = assay: cells; conditions: Homo sapiens, MCF7, 144 h
HCT-116 [45] = assay: Induction of apoptosis in human HCT-116 cells assessed as necrotic cells at 5 uM measured after 2 days by AnnexinV-FITC/PI staining based analysis (reference value: 0.64%); type: functional; conditions: time 2 day
HCT-116 [46] = assay: Induction of apoptosis in human HCT-116 cells assessed as viable cells at 5 uM measured after 2 days by AnnexinV-FITC/PI staining based analysis (reference value: 72.8%); type: functional; conditions: HCT-116, 48 h, time 2 day, read-out: Activity
[47] = Metabolic stability in human liver microsomes assessed as M1 metabolite formation at 1 uM in presence of NADPH-regenerating system by LC-MS/MS analysis; type: ADME, Microsome
[48] = target: T2, Serine-protein kinase ATM; assay: Inhibition of ATM (unknown origin) assessed as remaining activity at 1 uM preincubated with compound for 30 mins followed by substrate addition and measured after 2 hrs by HTRF method relative to control; conditions: time 2.5 hrs
[49] = target: T1, Serine/threonine-protein kinase ATR; assay: Inhibition of ATR (unknown origin) assessed as remaining activity at 1 uM in presence of [gamma33P-ATP] by radiometric assay

T2 sequence (Q13315 whole entry, canonical isoform): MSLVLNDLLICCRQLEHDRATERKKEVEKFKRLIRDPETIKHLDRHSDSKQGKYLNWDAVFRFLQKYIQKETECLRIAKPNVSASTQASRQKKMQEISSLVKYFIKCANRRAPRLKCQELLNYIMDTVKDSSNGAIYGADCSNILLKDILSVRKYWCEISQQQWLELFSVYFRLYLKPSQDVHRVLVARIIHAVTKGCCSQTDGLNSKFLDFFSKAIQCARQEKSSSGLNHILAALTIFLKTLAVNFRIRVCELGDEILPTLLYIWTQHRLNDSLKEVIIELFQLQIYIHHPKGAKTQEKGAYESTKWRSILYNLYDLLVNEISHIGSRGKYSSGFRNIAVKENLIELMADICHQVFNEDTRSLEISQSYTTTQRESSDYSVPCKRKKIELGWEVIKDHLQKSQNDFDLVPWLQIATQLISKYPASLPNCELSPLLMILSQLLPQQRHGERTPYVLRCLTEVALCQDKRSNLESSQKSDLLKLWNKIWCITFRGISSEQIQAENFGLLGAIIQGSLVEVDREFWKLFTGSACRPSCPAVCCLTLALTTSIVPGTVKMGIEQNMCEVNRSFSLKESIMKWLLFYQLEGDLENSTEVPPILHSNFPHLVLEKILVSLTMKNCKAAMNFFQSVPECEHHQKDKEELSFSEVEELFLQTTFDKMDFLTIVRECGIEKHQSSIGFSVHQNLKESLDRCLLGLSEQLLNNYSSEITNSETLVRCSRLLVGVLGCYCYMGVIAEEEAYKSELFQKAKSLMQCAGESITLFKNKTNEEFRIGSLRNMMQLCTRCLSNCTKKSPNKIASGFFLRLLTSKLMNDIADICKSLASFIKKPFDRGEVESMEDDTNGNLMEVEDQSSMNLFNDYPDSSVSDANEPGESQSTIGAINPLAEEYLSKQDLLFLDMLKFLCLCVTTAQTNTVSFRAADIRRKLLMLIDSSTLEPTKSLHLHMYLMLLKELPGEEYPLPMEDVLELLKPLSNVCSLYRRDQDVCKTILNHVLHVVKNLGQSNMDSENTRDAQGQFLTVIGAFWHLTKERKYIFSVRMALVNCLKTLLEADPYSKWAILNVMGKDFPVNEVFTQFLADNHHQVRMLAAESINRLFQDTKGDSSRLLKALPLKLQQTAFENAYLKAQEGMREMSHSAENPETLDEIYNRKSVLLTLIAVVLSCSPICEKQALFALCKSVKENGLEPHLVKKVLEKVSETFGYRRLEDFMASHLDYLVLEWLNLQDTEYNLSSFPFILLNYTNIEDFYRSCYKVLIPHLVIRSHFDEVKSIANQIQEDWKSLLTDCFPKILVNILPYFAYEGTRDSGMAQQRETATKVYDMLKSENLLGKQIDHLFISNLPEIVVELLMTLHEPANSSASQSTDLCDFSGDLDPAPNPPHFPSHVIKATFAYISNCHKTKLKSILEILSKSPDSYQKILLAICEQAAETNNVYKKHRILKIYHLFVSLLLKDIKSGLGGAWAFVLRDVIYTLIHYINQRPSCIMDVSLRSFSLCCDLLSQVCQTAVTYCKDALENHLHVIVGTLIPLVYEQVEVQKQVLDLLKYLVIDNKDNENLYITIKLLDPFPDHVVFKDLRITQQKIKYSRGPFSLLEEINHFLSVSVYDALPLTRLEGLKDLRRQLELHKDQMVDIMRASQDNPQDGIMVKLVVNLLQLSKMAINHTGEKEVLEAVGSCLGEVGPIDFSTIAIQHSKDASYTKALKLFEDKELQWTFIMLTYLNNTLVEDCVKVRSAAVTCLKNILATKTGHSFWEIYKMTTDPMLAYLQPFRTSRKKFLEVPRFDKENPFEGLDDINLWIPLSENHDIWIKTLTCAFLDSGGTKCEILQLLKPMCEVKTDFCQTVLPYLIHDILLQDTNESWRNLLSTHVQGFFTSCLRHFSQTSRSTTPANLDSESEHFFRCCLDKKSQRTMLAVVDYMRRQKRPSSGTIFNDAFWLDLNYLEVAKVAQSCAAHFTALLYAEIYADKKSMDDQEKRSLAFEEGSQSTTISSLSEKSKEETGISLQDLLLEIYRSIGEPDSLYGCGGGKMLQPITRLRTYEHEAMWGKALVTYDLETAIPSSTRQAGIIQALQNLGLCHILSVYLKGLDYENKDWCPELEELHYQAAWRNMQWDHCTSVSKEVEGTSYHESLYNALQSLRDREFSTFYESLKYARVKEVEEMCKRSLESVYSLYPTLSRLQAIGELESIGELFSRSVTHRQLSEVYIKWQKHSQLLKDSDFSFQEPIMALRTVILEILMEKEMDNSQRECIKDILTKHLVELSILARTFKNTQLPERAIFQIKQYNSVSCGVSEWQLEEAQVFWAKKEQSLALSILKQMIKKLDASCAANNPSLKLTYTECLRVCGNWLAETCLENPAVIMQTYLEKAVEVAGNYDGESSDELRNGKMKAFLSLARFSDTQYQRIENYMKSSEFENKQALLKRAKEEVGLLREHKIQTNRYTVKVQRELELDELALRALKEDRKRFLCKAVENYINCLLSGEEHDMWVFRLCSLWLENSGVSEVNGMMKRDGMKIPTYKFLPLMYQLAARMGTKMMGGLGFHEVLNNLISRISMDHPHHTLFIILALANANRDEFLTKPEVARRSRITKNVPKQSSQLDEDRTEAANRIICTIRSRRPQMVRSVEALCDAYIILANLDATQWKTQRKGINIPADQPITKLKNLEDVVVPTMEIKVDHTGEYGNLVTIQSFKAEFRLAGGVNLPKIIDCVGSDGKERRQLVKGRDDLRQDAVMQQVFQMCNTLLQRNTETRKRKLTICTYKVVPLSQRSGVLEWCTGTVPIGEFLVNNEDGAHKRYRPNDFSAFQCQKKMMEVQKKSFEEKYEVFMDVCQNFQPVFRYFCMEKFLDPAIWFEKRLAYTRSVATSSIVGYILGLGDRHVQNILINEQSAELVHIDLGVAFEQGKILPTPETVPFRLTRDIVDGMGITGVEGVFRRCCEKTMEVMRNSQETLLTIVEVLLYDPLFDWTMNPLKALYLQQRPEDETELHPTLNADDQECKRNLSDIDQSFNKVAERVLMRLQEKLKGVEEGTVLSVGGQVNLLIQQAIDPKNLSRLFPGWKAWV
Chain of Phosphatidylinositol 4,5-bisphosphate 3-kinase catalytic subunit alpha isoform (P42336 whole entry, canonical isoform): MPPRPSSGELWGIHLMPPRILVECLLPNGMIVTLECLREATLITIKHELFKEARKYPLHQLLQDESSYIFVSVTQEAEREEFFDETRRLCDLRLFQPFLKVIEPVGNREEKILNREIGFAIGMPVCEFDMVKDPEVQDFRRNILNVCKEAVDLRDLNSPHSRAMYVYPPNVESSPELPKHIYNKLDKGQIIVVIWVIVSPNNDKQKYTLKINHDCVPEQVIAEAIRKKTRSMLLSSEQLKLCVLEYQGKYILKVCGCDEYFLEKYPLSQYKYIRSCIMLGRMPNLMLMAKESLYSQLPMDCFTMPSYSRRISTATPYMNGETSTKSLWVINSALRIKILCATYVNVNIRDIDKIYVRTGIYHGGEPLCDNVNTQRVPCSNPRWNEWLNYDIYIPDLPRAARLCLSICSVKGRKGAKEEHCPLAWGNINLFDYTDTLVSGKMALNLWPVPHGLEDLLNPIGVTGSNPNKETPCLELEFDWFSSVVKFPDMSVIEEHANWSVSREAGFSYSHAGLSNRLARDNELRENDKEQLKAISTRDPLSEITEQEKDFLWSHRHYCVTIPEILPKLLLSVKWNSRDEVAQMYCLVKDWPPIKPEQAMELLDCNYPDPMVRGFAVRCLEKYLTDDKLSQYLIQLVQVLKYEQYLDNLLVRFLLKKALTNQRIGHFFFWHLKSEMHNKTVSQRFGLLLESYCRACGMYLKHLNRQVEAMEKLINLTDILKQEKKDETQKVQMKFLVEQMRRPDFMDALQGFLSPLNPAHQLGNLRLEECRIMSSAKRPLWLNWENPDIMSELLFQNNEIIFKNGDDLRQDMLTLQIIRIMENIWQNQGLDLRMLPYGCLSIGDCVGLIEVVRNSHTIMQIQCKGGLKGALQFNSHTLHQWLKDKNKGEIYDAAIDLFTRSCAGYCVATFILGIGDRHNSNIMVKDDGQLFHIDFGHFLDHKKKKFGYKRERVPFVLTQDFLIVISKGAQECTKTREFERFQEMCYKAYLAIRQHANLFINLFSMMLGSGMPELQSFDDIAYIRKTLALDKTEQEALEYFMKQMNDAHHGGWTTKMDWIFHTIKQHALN

SMILES: Cn1c(=O)n(-c2ccc(C(C)(C)C#N)cc2)c2c3cc(-c4cnc5ccccc5c4)ccc3ncc21 [DACTOLISIB]
IC50 [1]: 21 nM
IC50 [2]: 4 nM

SMILES: COCc1ccc(-c2ccc3ncc(C(N)=O)c(N[C@@H](C)C4CCOCC4)c3c2)cn1
CLH [6]: 7.2 mL/min/g
inhibition at 0.01 µM (HCT-116 [7]): 13.2%
IC50 (HCT-116 [8]): 20 nM
Cmax [9]: 1360 ng/mL
Tmax [10]: 1.33 h
IC50 (HCT-116 [11]): > 9000 nM
fold change (FC) (MCF7 [12]): 1.4
Vdss [13]: 6.49 L/kg
bioavailability [14]: 95.2%
inhibition in vivo at 40 mg/kg (SW-620 [15]): 77.7%
IC50 (MCF7 [16]): > 9000 nM
AUCt [17]: 7396.76 ng·h/mL
AUCt [18]: 7772.02 ng·h/mL
t1/2 [19]: 4.28 h
Cmax [20]: 3010 ng/mL
clearance [21]: 22 mL/min/kg
fold change (FC) (MCF7 [22]): 2.1
fold change (FC) (HCT-116 [23]): 6520
Activity (HCT-116 [24]): Active
IC50 (SW-620 [25]): > 9000 nM
Activity (HCT-116 [26]): Active
half-life at 1 µM [27]: 3.22 h
CL/F [28]: 23 mL/min/kg
t1/2 [29]: 3.16 h
fold change (FC) (SW-620 [30]): 3.3
viability at 1 µM (HCT-116 [31]): > 83%
fold change (FC) (SW-620 [32]): 1.5
Vd [33]: 7.68 L/kg
Tmax [34]: 4.8 min

SMILES: CCc1c2c(nc3ccc(OC(=O)N4CCC(N5CCCCC5)CC4)cc13)-c1cc3c(c(=O)n1C2)COC(=O)[C@]3(O)CC [IRINOTECAN]
Activity [35]: < 12%
IC50 (SW-620 [36]): 230 nM
Activity (HCT-116 [37]): Active
Activity (HCT-116 [38]): 19.9%
Activity (HCT-116 [39]): inactive
IC50 (SW-620 [40]): 980 nM
Activity (HCT-116 [41]): 26%
inhibition in vivo at 40 mg/kg (SW-620 [42]): 69.2%
Activity (HCT-116 [43]): Active
IC50 (MCF7 [44]): 910 nM
Activity (HCT-116 [45]): 1.7%
viability at 5 µM (HCT-116 [46]): 52.3%

Now from value to molecule:

IC50 [3]: 545 nM
IC50 [4]: 170 nM
IC50 [5]: 36 nM
SMILES: CC(C)(C#N)c1ccc(N2C(=O)OCc3cnc4ccc(-c5cnc6ccccc6c5)cc4c32)cc1

CLH [6]: 293 mL/min/g
Drug metabolism [47]: Metabolite_Detected
Activity [48]: -5%
half-life at 1 µM [27]: 0.0833 h
Activity [49]: 102%
SMILES: CN(C)CCCOc1ccc(-c2ccc3ncc(NC(=O)NC4CCCCC4)nc3c2)cn1
